Measurements reported in PubChem BioAssay AID248 (DTP/NCI, 2004).
Toxic doses and inconclusive results are not listed.

Test system: L1210 leukemia ip in BDF1 mice, survival T/C
Test: NCI In Vivo Anticancer Drug Screen. Data for tumor model L1210 Leukemia (intraperitoneal) in B6D2F1 (BDF1) mice
Conditions: endpoint: mean survival time, higher = longer survival
In short: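 Mice bearing the transplanted tumor received compound or vehicle. Survival of the treated group was divided by that of the vehicle-treated control group to give the ratio.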

[1] = dose: 100.0 mg/kg/injection, schedule: Q01DX001 (ip), vehicle: saline
[2] = dose: 200.0 mg/kg/injection, schedule: Q01DX001 (ip), vehicle: saline
[3] = dose: 400.0 mg/kg/injection, schedule: Q01DX001 (ip), vehicle: saline
[4] = dose: 100.0 mg/kg/injection, schedule: Q01DX009 (ip), vehicle: Klucel (hydroxypropylcellulose) (HPC)
[5] = dose: 100.0 mg/kg/injection, schedule: Q04DX003 (ip), vehicle: Klucel (hydroxypropylcellulose) (HPC)
[6] = dose: 200.0 mg/kg/injection, schedule: Q01DX009 (ip), vehicle: Klucel (hydroxypropylcellulose) (HPC)
[7] = dose: 200.0 mg/kg/injection, schedule: Q04DX003 (ip), vehicle: Klucel (hydroxypropylcellulose) (HPC)
[8] = dose: 400.0 mg/kg/injection, schedule: Q04DX003 (ip), vehicle: Klucel (hydroxypropylcellulose) (HPC)
[9] = dose: 50.0 mg/kg/injection, schedule: Q04DX003 (ip), vehicle: Klucel (hydroxypropylcellulose) (HPC)
[10] = dose: 100.0 mg/kg/injection, schedule: Q01DX009 (ip), vehicle: saline with Tween-80
[11] = dose: 200.0 mg/kg/injection, schedule: Q01DX009 (ip), vehicle: saline with Tween-80
[12] = dose: 400.0 mg/kg/injection, schedule: Q01DX009 (ip), vehicle: saline with Tween-80

`CNC1CC(N)C(O)C(OC2OC(CO)C(O)C3OC4(OC(C(N)CO)C(O)C(O)C4O)OC23)C1O` (centres undefined) was tested, and the T/C (dose: 2.2 mg/kg/injection, schedule: Q01DX Z (ip), vehicle: saline) was 97 % of control, the T/C (dose: 3.3 mg/kg/injection, schedule: Q01DX Z (ip), vehicle: saline) was 94 % of control and the T/C (dose: 5.0 mg/kg/injection, schedule: Q01DX Z (ip), vehicle: saline) was 89 % of control. For the same compound, the T/C (dose: 7.6 mg/kg/injection, schedule: Q01DX Z (ip), vehicle: saline) was 94 % of control.

In the case of `COc1ccc(Cl)cc1/C=C/C=O`, the T/C [1] is reported as 91 % of control, the T/C [2] is reported as 92 % of control and the T/C [3] is reported as 102 % of control.

In the case of `O=C(O)c1ncn[nH]1`, the T/C [4] is reported as 95 % of control, the T/C (dose: 100.0 mg/kg/injection, schedule: Q04DX002 (ip), vehicle: Klucel (hydroxypropylcellulose) (HPC)) is reported as 89 % of control and the T/C [5] is reported as 101 % of control. For the same compound, the T/C [6] was 100 % of control, the T/C (dose: 200.0 mg/kg/injection, schedule: Q04DX002 (ip), vehicle: Klucel (hydroxypropylcellulose) (HPC)) was 115 % of control and the T/C [7] was 95 % of control. For the same compound, the T/C (dose: 400.0 mg/kg/injection, schedule: Q01DX009 (ip), vehicle: Klucel (hydroxypropylcellulose) (HPC)) was 100 % of control, the T/C (dose: 400.0 mg/kg/injection, schedule: Q04DX002 (ip), vehicle: Klucel (hydroxypropylcellulose) (HPC)) was 89 % of control and the T/C [8] was 108 % of control.

With `c1ccc(-c2nc3nncn3nc2-c2ccccc2)cc1` the T/C [1] was 94 % of control, the T/C [2] was 99 % of control and the T/C [3] was 98 % of control.

In the case of `NC(CCCc1ccccc1)C(=O)O` (centres undefined), the T/C [9] is reported as 98 % of control, the T/C [5] is reported as 96 % of control and the T/C [7] is reported as 88 % of control. For the same compound, the T/C [8] was 94 % of control.

In the case of `COc1ccc(C(=O)c2ccccc2)c(OC(=O)Nc2cc([N+](=O)[O-])ccc2F)c1`, the T/C [5] is reported as 95 % of control, the T/C [7] is reported as 101 % of control and the T/C [8] is reported as 98 % of control.

In the case of `O=S(=O)(O)CCNC(=S)C(=S)NCCS(=O)(=O)O`, the T/C (dose: 100.0 mg/kg/injection, schedule: Q04DX002 (ip), vehicle: saline) is reported as 101 % of control, the T/C (dose: 200.0 mg/kg/injection, schedule: Q04DX002 (ip), vehicle: saline) is reported as 101 % of control and the T/C (dose: 400.0 mg/kg/injection, schedule: Q04DX002 (ip), vehicle: saline) is reported as 101 % of control.

In the case of `Nc1nc(N)nc(CBr)n1`, the T/C (dose: 12.5 mg/kg/injection, schedule: Q01DX001 (ip), vehicle: Klucel (hydroxypropylcellulose) (HPC)) is reported as 103 % of control and the T/C (dose: 50.0 mg/kg/injection, schedule: Q01DX001 (ip), vehicle: Klucel (hydroxypropylcellulose) (HPC)) is reported as 115 % of control.

For `O=[N+]([O-])c1ccc(/C=C/C=C/c2ccccc2)cc1`, the T/C [10] was 105 % of control, the T/C [11] was 92 % of control and the T/C [12] was 89 % of control.

`CCCCCC(O)C(CO)CCCC` (centres undefined) was tested, and the T/C [10] was 100 % of control, the T/C [11] was 95 % of control and the T/C [12] was 94 % of control.

`CN(Cc1cnc2nc(NCNC(=O)C3=C(O)[C@@]4(O)C(=O)C5=C(O)c6c(O)cccc6[C@@](C)(O)[C@H]5C[C@H]4[C@H](N(C)C)C3=O)nc(N)c2n1)c1ccc(C(=O)NC(CCC(=O)O)C(=O)O)cc1` (some centres undefined) was tested, and the T/C (dose: 1.5 mg/kg/injection, schedule: Q01DX015 (ip), vehicle: saline) was 213 % of control, the T/C (dose: 3.0 mg/kg/injection, schedule: Q01DX015 (ip), vehicle: saline) was 219 % of control and the T/C (dose: 6.0 mg/kg/injection, schedule: Q01DX015 (ip), vehicle: saline) was 163 % of control. The T/C (dose: 12.0 mg/kg/injection, schedule: Q01DX015 (ip), vehicle: saline) was 107 % of control and the T/C (dose: 24.0 mg/kg/injection, schedule: Q01DX015 (ip), vehicle: saline) was 87 % of control.

For `CC(C)NCCC#N`, the T/C (dose: 100.0 mg/kg/injection, schedule: Q04DX003 (ip), vehicle: saline) was 104 % of control, the T/C (dose: 200.0 mg/kg/injection, schedule: Q04DX003 (ip), vehicle: saline) was 111 % of control and the T/C (dose: 400.0 mg/kg/injection, schedule: Q04DX003 (ip), vehicle: saline) was 108 % of control.

In the case of `CC(C)NNC(=O)c1ccccc1N`, the T/C (dose: 25.0 mg/kg/injection, schedule: Q01DX009 (ip), vehicle: Klucel (hydroxypropylcellulose) (HPC)) is reported as 103 % of control, the T/C (dose: 25.0 mg/kg/injection, schedule: Q04DX003 (ip), vehicle: Klucel (hydroxypropylcellulose) (HPC)) is reported as 96 % of control and the T/C (dose: 50.0 mg/kg/injection, schedule: Q01DX009 (ip), vehicle: Klucel (hydroxypropylcellulose) (HPC)) is reported as 98 % of control. For the same compound, the T/C [9] was 89 % of control, the T/C [4] was 93 % of control and the T/C [5] was 91 % of control. The T/C [6] was 92 % of control, the T/C [7] was 100 % of control and the T/C [8] was 94 % of control.
